Source: article PMC7827648 (Molecules, 2021)
“And” between values parts separate entries of the source, which are not always exact repeats. Identical values can stand only once.

How the values were obtained:
[1] = test system: HCT116 (intestinal carcinoma) cells; experiment: Cytotoxicity, MTT assay, HCT116 cells; assay type: cell-based; conditions: Homo sapiens, HCT-116, read-out: IC50, 50% inhibition of the cell population growth, 72 h, mean ± SD
Procedure: (§1) The cytotoxicity of the newly synthesized Schiff bases was evaluated in vitro in a panel of cultured tumor cells, assessing cell viability at scalar concentrations of the test compounds (≤500 μM) by MTT (i.e., 3-(4,5-dimethylthiazol-2-yl)-2,5-diphenyltetrazolium bromide) and Alamar Blue assays, using doxorubicin as the positive controls. Most of the compounds were tested against RD (rhabdomyosarcoma), HCT116 (intestinal carcinoma), HeLa (adenocarcinoma of the cervix uterus) and A549 (lung adenocarcinoma) cell lines, whereas five representative compounds of the subsets were tested also against K562 (chronic myelogenous leukemia) tumor cells.
(§2) The experiments were carried out in triplicate.

[2] = test system: RD (rhabdomyosarcoma) cells; experiment: Cytotoxicity, MTT assay, RD cells; assay type: cell-based; conditions: Homo sapiens, read-out: IC50, 50% inhibition of the cell population growth, 72 h, mean ± SD
Procedure: as §1, §2

[3] = biological target: human acetylcholinesterase (AChE) (Homo sapiens, UniProt P22303); experiment: biochemical; conditions: for IC50: human recombinant AChE, pH 8.0, mean ± SD (n = 3), read-out: IC50 hAChE; for inhibition mechanism on hAChE: Michaelis-Menten / Lineweaver-Burk plots; for Ki: complete kinetics, human AChE, read-out: inhibition constant (Ki) hAChE; for inhibition at 10 µM: mean ± SD (n = 3), read-out: % inhibition hAChE
Sequence of human acetylcholinesterase (AChE) (P22303 32-614): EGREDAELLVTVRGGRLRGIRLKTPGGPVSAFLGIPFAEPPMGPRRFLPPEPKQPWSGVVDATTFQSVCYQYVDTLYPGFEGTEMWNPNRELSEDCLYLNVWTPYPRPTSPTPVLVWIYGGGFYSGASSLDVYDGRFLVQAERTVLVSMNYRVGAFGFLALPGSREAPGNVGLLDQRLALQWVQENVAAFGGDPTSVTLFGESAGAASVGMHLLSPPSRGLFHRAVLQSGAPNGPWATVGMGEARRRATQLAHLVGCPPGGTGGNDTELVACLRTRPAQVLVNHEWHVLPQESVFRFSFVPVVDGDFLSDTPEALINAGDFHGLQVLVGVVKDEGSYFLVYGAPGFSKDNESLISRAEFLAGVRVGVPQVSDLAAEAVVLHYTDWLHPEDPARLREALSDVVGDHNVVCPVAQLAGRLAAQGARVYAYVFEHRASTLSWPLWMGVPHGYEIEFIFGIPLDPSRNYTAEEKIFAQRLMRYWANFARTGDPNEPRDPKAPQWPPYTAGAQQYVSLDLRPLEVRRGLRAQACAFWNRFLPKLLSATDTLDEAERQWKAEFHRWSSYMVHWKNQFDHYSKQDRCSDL
Procedure: (§3) The ChE inhibition assay was carried out using the Ellman’s spectrophotometric method [23], as applied to the 96-well plate technique [24] on a Tecan Infinite M1000 Pro instrument (Cernusco s.N., Italy).

[4] = test system: HeLa (adenocarcinoma of the cervix uterus) cells; experiment: Cytotoxicity, MTT assay, HeLa cells; assay type: cell-based; conditions: Homo sapiens, read-out: IC50, 50% inhibition of the cell population growth, 72 h, mean ± SD
Procedure: as §1, §2

[5] = test system: A549 (lung adenocarcinoma) cells; experiment: Cytotoxicity, MTT assay, A549 cells; assay type: cell-based; conditions: Homo sapiens, read-out: IC50, 50% inhibition of the cell population growth, 72 h, mean ± SD
Procedure: as §1, §2

[6] = biological target: T1, human butyrylcholinesterase (BChE) (Homo sapiens, UniProt P06276); experiment: BChE inhibition, Ellman's method; assay type: biochemical; conditions: mean ± SD (n = 3), n.i. = no inhibition; for % inhibition hBChE: at 10 μM; for inhibition at 10 µM: read-out: % inhibition hBChE
T1 construct: BChE from human serum (50 U/mg); from tissue; host or cells: human serum
T1 sequence (P06276 29-602): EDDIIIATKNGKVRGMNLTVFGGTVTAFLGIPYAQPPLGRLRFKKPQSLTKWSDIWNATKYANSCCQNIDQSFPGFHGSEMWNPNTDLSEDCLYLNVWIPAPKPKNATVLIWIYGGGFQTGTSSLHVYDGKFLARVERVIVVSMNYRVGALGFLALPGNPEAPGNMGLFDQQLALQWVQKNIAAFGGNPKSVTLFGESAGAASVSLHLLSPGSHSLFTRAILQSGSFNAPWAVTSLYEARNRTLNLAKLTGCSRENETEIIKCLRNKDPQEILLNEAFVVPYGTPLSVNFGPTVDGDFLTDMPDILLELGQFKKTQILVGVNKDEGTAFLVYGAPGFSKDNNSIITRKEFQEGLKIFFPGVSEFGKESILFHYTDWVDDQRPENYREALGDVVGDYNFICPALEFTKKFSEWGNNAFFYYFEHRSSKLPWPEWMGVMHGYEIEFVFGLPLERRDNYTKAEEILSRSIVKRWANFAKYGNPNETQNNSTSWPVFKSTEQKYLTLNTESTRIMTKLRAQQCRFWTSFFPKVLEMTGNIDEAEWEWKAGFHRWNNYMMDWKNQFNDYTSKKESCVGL
Procedure: as §3

[7] = biological target: T2, β-amyloid (Aβ)1–40 self-aggregation (Homo sapiens, UniProt P05067); experiment: Inhibition of self-induced Aβ40 aggregation, thioflavin T fluorescence; assay type: biochemical; conditions: for IC50 / inhibition at 100 µM: Aβ40 30 μM, 2% HFIP, ThT, mean ± SD (n = 3); for IC50: PBS pH 7.4, 2 h
T2 construct: self-aggregation of Aβ peptides 1–40 (Aβ40)
T2 sequence (P05067 672-711 limits assumed): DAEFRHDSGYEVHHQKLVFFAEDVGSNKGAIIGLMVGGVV
Procedure: Molecules able to inhibit simultaneously AChE and β-amyloid (Aβ) aggregation/neurotoxicity may have potential as drugs for the treatment of AD [14]. Herein, the new DHPPIQ derivatives were evaluated for the inhibitory effects on the self-aggregation of Aβ peptides 1–40 (Aβ40), through a test based on the measurement of thioflavin T (ThT) fluorescence. Quercetin, which is a strong inhibitor of in vitro Aβ self-aggregation, was used as a positive control.
Each compound was initially tested at a 100-μM concentration. […] […].
According to an already reported 96-well plate procedure, the test compounds at 100 μM were incubated with Aβ40 (30 μM) and 2% HFIP (1,1,1,3,3,3-hexafluoro-2-propanol), used as aggregation enhancer in PBS pH 7.4 for 2 h at room temperature. After the addition of ThT, the fluorescence was read at the 440/485 nm excitation/emission wavelength. Experiments were performed in triplicate, and the % inhibition values calculated as mean ± SD.

[8] = test system: K562 (chronic myelogenous leukemia) cells; experiment: Cytotoxicity, Alamar Blue (resazurin) assay, K562 cells; assay type: cell-based; conditions: Homo sapiens, read-out: IC50, 50% inhibition of the cell population growth, 72 h, mean ± SD
Procedure: as §1, §2

in vitro = conditions: human
human MAO B = biological target: T3, human MAO B (Homo sapiens, UniProt P27338); experiment: biochemical; conditions: at 10 μM, mean ± SD (n = 3); read-out: % inhibition hMAO B
T3 construct: host or cells: baculovirus-infected insect cells (microsomes)
T3 sequence (P27338 1-520): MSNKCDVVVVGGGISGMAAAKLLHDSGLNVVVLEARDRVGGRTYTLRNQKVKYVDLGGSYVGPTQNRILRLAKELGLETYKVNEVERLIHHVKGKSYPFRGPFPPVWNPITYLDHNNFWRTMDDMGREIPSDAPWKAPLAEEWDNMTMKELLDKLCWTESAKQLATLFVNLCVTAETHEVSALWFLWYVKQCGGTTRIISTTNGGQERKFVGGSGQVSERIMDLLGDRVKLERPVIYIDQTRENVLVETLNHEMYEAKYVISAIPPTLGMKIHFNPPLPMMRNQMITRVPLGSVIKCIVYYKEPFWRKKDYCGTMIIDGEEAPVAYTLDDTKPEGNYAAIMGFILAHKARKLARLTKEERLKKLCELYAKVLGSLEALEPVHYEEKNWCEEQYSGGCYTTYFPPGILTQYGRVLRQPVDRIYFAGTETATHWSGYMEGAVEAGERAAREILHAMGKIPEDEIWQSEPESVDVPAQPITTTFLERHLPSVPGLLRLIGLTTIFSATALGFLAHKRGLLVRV
Procedure: (§4) The inhibition of human recombinant MAO A (250 U/mg) and B (59 U/mg; microsomes from baculovirus-infected insect cells) was evaluated using the reported 96-well plate technique [12]. on a Tecan Infinite M1000 Pro instrument (Cernusco s.N., Italy). […] After addition of the enzyme and 30 min of incubation, NaOH was added and the fluorescence read at the 310/400 excitation/emission wavelength.

human MAO A = biological target: T4, human MAO A (Homo sapiens, UniProt P21397); experiment: biochemical; conditions: human recombinant MAO A, kynuramine, mean ± SD (n = 3); read-out: IC50 hMAO A
T4 construct: host or cells: baculovirus-infected insect cells (microsomes)
T4 sequence (P21397 1-527): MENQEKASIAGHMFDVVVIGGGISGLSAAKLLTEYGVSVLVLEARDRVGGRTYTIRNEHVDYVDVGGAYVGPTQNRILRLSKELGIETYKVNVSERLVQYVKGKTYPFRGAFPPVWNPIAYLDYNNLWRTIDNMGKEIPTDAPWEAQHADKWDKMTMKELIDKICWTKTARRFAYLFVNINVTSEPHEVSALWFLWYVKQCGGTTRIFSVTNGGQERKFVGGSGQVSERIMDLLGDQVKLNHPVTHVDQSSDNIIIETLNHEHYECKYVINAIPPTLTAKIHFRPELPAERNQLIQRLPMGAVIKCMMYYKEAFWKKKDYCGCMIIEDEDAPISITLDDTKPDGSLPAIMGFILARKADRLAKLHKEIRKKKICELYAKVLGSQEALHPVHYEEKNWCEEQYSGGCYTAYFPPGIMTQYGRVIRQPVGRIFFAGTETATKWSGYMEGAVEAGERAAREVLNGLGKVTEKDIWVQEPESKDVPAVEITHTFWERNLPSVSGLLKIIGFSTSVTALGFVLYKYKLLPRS
Procedure: as §4

## COc1cc2c(cc1OC)-c1c(-c3ccc(F)cc3)c(C=O)c(-c3ccccc3)n1CC2 [Compound 6]
[1]
  IC50: 261 ± 13 µM
[2]
  IC50: 91.1 ± 10.9 µM

## CCOc1ccc(-c2c(/C=N/c3ccc(OC)cc3)cn3c2-c2cc(OCC)c(OCC)cc2CC3)cc1OCC [Compound 7, (E)-1-(1-(3,4-diethoxyphenyl)-8,9-diethoxy-5,6-dihydropyrrolo[2,1-a]isoquinolin-2-yl)-N-(4-methoxyphenyl)methanimine]
[3]
  IC50: 20.2 ± 3.1 µM
[4]
  IC50: 34.9 ± 1.8 µM
[1]
  IC50: 38.5 ± 6.6 µM
[5]
  IC50: 79.5 ± 6.8 µM
[6]
  % inhibition hBChE: n.i.
[7]
  IC50: 78 ± 5.1 µM
[8]
  IC50: 171 ± 12 µM
[2]
  IC50: 132 ± 4 µM

## COc1cc2c(cc1OC)-c1c(-c3ccc(Cl)cc3)c(C=O)c(-c3ccccc3)n1CC2 [Compound 4]
[3]
  inhibition mechanism on hAChE: noncompetitive/mixed-type mechanism
  Ki: 3.58 ± 0.04 µM
  IC50: 7.9 ± 0.13 µM
[4]
  IC50: 109 ± 5 µM
[1]
  IC50: 252 ± 11 µM
[5]
  IC50: 105 ± 11 µM
[6]
  % inhibition hBChE: n.i.
[7]
  inhibition at 100 µM: 35 ± 6%
[2]
  IC50: 163 ± 20 µM

## COc1cc2c(cc1OC)-c1c(-c3ccc(Cl)cc3)c(/C=N/c3ccc(/N=C/c4c(-c5ccc(Cl)cc5)c5n(c4-c4ccccc4)CCc4cc(OC)c(OC)cc4-5)cc3)c(-c3ccccc3)n1CC2 [Compound 15a, (1E,1’E)-N,N’-(1,4-phenylene)bis(1-(1-[4-chlorophenyl]-8,9-dimethoxy-3-phenyl-5,6-dihydropyrrolo[2,1-a]isoquinolin-2-yl)methanimine)-1,4-diaminium dichloride]
[3]
  inhibition at 10 µM: 25 ± 3%
[4]
  IC50: 93.4 ± 2.6 µM
[1]
  IC50: 102 ± 5 µM
[5]
  IC50: 120 ± 3.5 µM
[6]
  % inhibition hBChE: n.i.
[7]
  IC50: 50 ± 6.3 µM
[8]
  IC50: 251 ± 17 µM
[2]
  IC50: 149 ± 3 µM

## CCOc1ccc(-c2c(/C=N/CCCN(C)C)cn3c2-c2cc(OCC)c(OCC)cc2CC3)cc1OCC.Cl.Cl [Compound 16a, (E)-N^1-((1-[3,4-diethoxyphenyl]-8,9-diethoxy-5,6-dihydropyrrolo[2,1-a]isoquinolin-2-yl)methylene)-N^3,N^3-dimethylpropane-1,3-diaminium chloride]
[3]
  inhibition at 10 µM: 32 ± 2%
[4]
  IC50: 63.1 ± 3.1 µM
[1]
  IC50: 60.5 ± 0.7 µM
[5]
  IC50: 85.1 ± 0.2 µM
[6]
  % inhibition hBChE: n.i.
[7]
  inhibition at 100 µM: 48 ± 4%
[2]
  IC50: 72.8 ± 4.6 µM

## COc1cc2c(cc1OC)-c1c(-c3ccc(F)cc3)c(C=O)cn1CC2 [Compound 5]
[3]
  inhibition at 10 µM: 33 ± 4%
[4]
  IC50: 33.8 ± 1 µM
[1]
  IC50: 32.2 ± 0.3 µM
[5]
  IC50: 41.3 ± 2 µM
[6]
  % inhibition hBChE: n.i.
[2]
  IC50: 17.8 ± 0.4 µM

## COc1cc2c(cc1OC)-c1c(-c3ccc(Cl)cc3)c(/C=N/c3ccc(/N=C/c4cn5c(c4-c4ccc(Cl)cc4)-c4cc(OC)c(OC)cc4CC5)cc3)cn1CC2 [Compound 14, (1E,1’E)-N,N’-(1,4-phenylene)bis(1-(1-[4-chlorophenyl]-8,9-dimethoxy-5,6-dihydropyrrolo[2,1-a]isoquinolin-2-yl)methanimine)]
[3]; 14 vs galantamine
  hAChE potency relative to the reference compound galantamine: tenfold less potent
[3]
  inhibition mechanism on hAChE: noncompetitive/mixed-type inhibition mechanism
  Ki: 4.69 µM
  IC50: 7.3 ± 0.74 µM
[4]
  IC50: 310 ± 12 µM
[1]
  IC50: 390 ± 16 µM
In vitro
  IC50 at 72 h: 29.3 ± 0.1 µM
[5]
  IC50: > 500 µM
[6]
  inhibition at 10 µM: 13 ± 1%
[7]
  IC50: 13 ± 1 µM
[7]; ratio of IC50 values, 14 vs 9
  fold stronger inhibition of Aβ40 aggregation than the respective mono-DHPPIQ Schiff base 9: 3.5 fold
Human MAO B
  inhibition at 10 µM: 19 ± 5%
[2]
  IC50: 269 ± 11 µM
Human MAO A
  IC50: 12.1 ± 2.3 µM

## CCOc1ccc(-c2c(/C=N/CC/N=C/c3cn4c(c3-c3ccc(OCC)c(OCC)c3)-c3cc(OCC)c(OCC)cc3CC4)cn3c2-c2cc(OCC)c(OCC)cc2CC3)cc1OCC [Compound 19, (1E,1’E)-N,N’-(ethane-1,2-diyl)bis(1-(1-(3,4-diethoxyphenyl)-8,9-diethoxy-5,6-dihydropyrrolo[2,1-a]isoquinolin-2-yl)methanimine)]
[3]
  inhibition at 10 µM: 37 ± 2%
[4]
  IC50: 84 ± 1.3 µM
[1]
  IC50: 401 ± 8 µM
[6]
  % inhibition hBChE: n.i.
[7]
  inhibition at 100 µM: 48 ± 3%
[8]
  IC50: 290 ± 12 µM
[2]
  IC50: 65.1 ± 7.3 µM

## CCOc1ccc(-c2c(/C=N/c3ccc(/N=C/c4cn5c(c4-c4ccc(OCC)c(OCC)c4)-c4cc(OCC)c(OCC)cc4CC5)cc3)cn3c2-c2cc(OCC)c(OCC)cc2CC3)cc1OCC [Compound 13a, (1E,1’E)-N,N’-(1,4-phenylene)bis(1-(1-[3,4-diethoxyphenyl]-8,9-diethoxy-5,6-dihydropyrrolo[2,1-a]isoquinolin-2-yl)methanimine)-1,4-diaminium dichloride]
[3]
  IC50: 13 µM and 13.1 µM
[4]
  IC50: 205 ± 10 µM
[1]
  IC50: 103 ± 8 µM
In vitro
  IC50 at 72 h: 101 ± 6 µM
[5]
  IC50: 240 ± 18 µM
[6]
  inhibition at 10 µM: 11 ± 3%
[7]
  IC50: 42 ± 3 µM
Human MAO B
  inhibition at 10 µM: 31 ± 3%
[2]
  IC50: 390 ± 19 µM
Human MAO A
  IC50: 12.3 ± 1.1 µM

## COc1cc2c(cc1OC)-c1c(-c3ccc(Cl)cc3)c(C=O)cn1CC2 [Compound 3]
[3]
  inhibition at 10 µM: 32 ± 3%
[4]
  IC50: 33 ± 4.5 µM
[1]
  IC50: 22 ± 4 µM
[5]
  IC50: 38.6 ± 3.2 µM
[6]
  % inhibition hBChE: n.i.
[7]
  IC50: 66 ± 2.2 µM
[2]
  IC50: 17.6 ± 3.2 µM

## CC[C@@]1(O)C(=O)OCc2c1cc1n(c2=O)Cc2cc3ccccc3nc2-1 [Camptothecin, reference compound]
In vitro
  IC50 at 72 h: 0.272 ± 0.01 µM

## COc1cccc2c1C(=O)c1c(O)c3c(c(O)c1C2=O)C[C@@](O)(C(=O)CO)C[C@@H]3O[C@H]1C[C@H](N)[C@H](O)[C@H](C)O1 [Doxorubicin, reference compound]
[4]
  IC50: 0.892 ± 0.013 µM
[1]
  IC50: 0.142 ± 0.011 µM
[5]
  IC50: 0.38 ± 0.021 µM
[8]
  IC50: 1.75 ± 0.06 µM
[2]
  IC50: 0.29 ± 0.021 µM

## COc1ccc(/N=C/c2c(-c3ccc(Cl)cc3)c3n(c2-c2ccccc2)CCc2cc(OC)c(OC)cc2-3)cc1 [Compound 10, (E)-1-(1-(4-chlorophenyl)-8,9-dimethoxy-3-phenyl-5,6-dihydropyrrolo[2,1-a]isoquinolin-2-yl)-N-(4-methoxyphenyl)methanimine]
[3]
  inhibition at 10 µM: 35 ± 7%
[1]
  IC50: 211 ± 9 µM
[6]
  % inhibition hBChE: n.i.
[7]
  inhibition at 100 µM: 42 ± 5%
